# Key:
# Test in all cases: Test E pre-/postemergence greenhouse test, plant response rating 0-100
# Type in all cases: in vivo
# [1] = system: Brazilian crabgrass (Digitaria horizontalis); settings: Digitaria horizontalis, post-emergence, Postemergence, scale 0 to 100, read-out: Plant response rating, Crabgrass, Brazil
# Summary of the method: (§1)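 Visual control score, 0–100 relative to untreated plants, recorded 14–21 days after spraying. Treatments: preemergence on silt loam seedbeds and postemergence at the 1- to 4-leaf stage, with compound in surfactant-containing solvent.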
# [2] = system: Italian ryegrass (Lolium multiflorum); settings: Lolium multiflorum, post-emergence, Postemergence, scale 0 to 100
# Summary of the method: as §1
# [3] = system: barnyardgrass (Echinochloa crus-galli); settings: Echinochloa crus-galli, post-emergence, Postemergence, scale 0 to 100
# Summary of the method: as §1
# corn (Zea mays) = settings: Zea mays, post-emergence, Postemergence, scale 0 to 100
# Summary of the method: as §1
# [4] = system: dayflower (Virginia (VA) dayflower, Commelina virginica); settings: Commelina virginica, post-emergence, Postemergence, scale 0 to 100
# Summary of the method: as §1
# [5] = system: fall panicum (Panicum dichotomiflorum); settings: Panicum dichotomiflorum, post-emergence, Postemergence, scale 0 to 100
# Summary of the method: as §1
# [6] = system: field bindweed (Convolvulus arvensis); settings: Convolvulus arvensis, post-emergence, Postemergence, scale 0 to 100
# Summary of the method: as §1
# [7] = system: hairy beggarticks (Bidens pilosa); settings: Bidens pilosa, post-emergence, Postemergence, scale 0 to 100
# Summary of the method: as §1
# [8] = system: sandbur (southern sandbur, Cenchrus echinatus); settings: Cenchrus echinatus, post-emergence, Postemergence, scale 0 to 100
# Summary of the method: as §1
# soybean (Glycine max) = settings: Glycine max, post-emergence, Postemergence, scale 0 to 100
# Summary of the method: as §1
# [9] = system: waterhemp (common waterhemp, Amaranthus rudis); settings: Amaranthus tuberculatus, post-emergence, Postemergence, scale 0 to 100
# Summary of the method: as §1
# [10] = system: wild poinsettia (Euphorbia heterophylla); settings: Euphorbia heterophylla, post-emergence, Postemergence, scale 0 to 100, read-out: Plant response rating, Poinsettia, Wild
# Summary of the method: as §1
compound,measurement,setting,value
"Clc1cc(Cl)cc(-c2n[nH]cc2C(=NN2CCCC2)c2ccccc2)c1 [Compound 30, N-[[3-(3,5-dichlorophenyl)-1H-pyrazol-4-yl]phenylmethylene]-1-pyrrolidinamine]",pest or weed control at 16 g/ha,[1]; 16 g ai/ha,0%
same,pest or weed control at 31 g/ha,[1]; 31 g ai/ha,0%
same,pest or weed control at 62 g/ha,[1]; 62 g ai/ha,0%
same,pest or weed control at 125 g/ha,[1]; 125 g ai/ha,0%
same,pest or weed control at 250 g/ha,[1]; 250 g ai/ha,0%
same,pest or weed control at 31 g/ha,[2]; 31 g ai/ha,0%
same,pest or weed control at 62 g/ha,[2]; 62 g ai/ha,0%
same,pest or weed control at 125 g/ha,[2]; 125 g ai/ha,0%
same,pest or weed control at 250 g/ha,[2]; 250 g ai/ha,5%
same,pest or weed control at 16 g/ha,[3]; 16 g ai/ha,0%
same,pest or weed control at 31 g/ha,[3]; 31 g ai/ha,0%
same,pest or weed control at 62 g/ha,[3]; 62 g ai/ha,0%
same,pest or weed control at 125 g/ha,[3]; 125 g ai/ha,0%
same,pest or weed control at 250 g/ha,[3]; 250 g ai/ha,0%
same,"Corn plant response rating (crop injury, 0 = no effect, 100 = complete kill) at 16 g/ha",corn (Zea mays); 16 g ai/ha,0%
same,"Corn plant response rating (crop injury, 0 = no effect, 100 = complete kill) at 31 g/ha",corn (Zea mays); 31 g ai/ha,0%
same,"Corn plant response rating (crop injury, 0 = no effect, 100 = complete kill) at 62 g/ha",corn (Zea mays); 62 g ai/ha,0%
same,"Corn plant response rating (crop injury, 0 = no effect, 100 = complete kill) at 125 g/ha",corn (Zea mays); 125 g ai/ha,0%
same,"Corn plant response rating (crop injury, 0 = no effect, 100 = complete kill) at 250 g/ha",corn (Zea mays); 250 g ai/ha,0%
same,pest or weed control at 16 g/ha,[4]; 16 g ai/ha,0%
same,pest or weed control at 31 g/ha,[4]; 31 g ai/ha,0%
same,pest or weed control at 62 g/ha,[4]; 62 g ai/ha,0%
same,pest or weed control at 125 g/ha,[4]; 125 g ai/ha,0%
same,pest or weed control at 250 g/ha,[4]; 250 g ai/ha,0%
same,pest or weed control at 31 g/ha,[5]; 31 g ai/ha,0%
same,pest or weed control at 62 g/ha,[5]; 62 g ai/ha,0%
same,pest or weed control at 125 g/ha,[5]; 125 g ai/ha,0%
same,pest or weed control at 250 g/ha,[5]; 250 g ai/ha,0%
same,pest or weed control at 16 g/ha,[6]; 16 g ai/ha,0%
same,pest or weed control at 31 g/ha,[6]; 31 g ai/ha,0%
same,pest or weed control at 62 g/ha,[6]; 62 g ai/ha,0%
same,pest or weed control at 125 g/ha,[6]; 125 g ai/ha,0%
same,pest or weed control at 250 g/ha,[6]; 250 g ai/ha,0%
same,pest or weed control at 16 g/ha,[7]; 16 g ai/ha,80%
same,pest or weed control at 125 g/ha,[7]; 125 g ai/ha,85%
same,pest or weed control at 250 g/ha,[7]; 250 g ai/ha,100%
same,pest or weed control at 31 g/ha,[8]; 31 g ai/ha,0%
same,pest or weed control at 62 g/ha,[8]; 62 g ai/ha,0%
same,pest or weed control at 125 g/ha,[8]; 125 g ai/ha,0%
same,pest or weed control at 250 g/ha,[8]; 250 g ai/ha,0%
same,plant injury at 31 g/ha,soybean (Glycine max); 31 g ai/ha,0%
same,plant injury at 62 g/ha,soybean (Glycine max); 62 g ai/ha,0%
same,plant injury at 125 g/ha,soybean (Glycine max); 125 g ai/ha,0%
same,plant injury at 250 g/ha,soybean (Glycine max); 250 g ai/ha,0%
same,pest or weed control at 31 g/ha,[9]; 31 g ai/ha,60%
same,pest or weed control at 62 g/ha,[9]; 62 g ai/ha,70%
same,pest or weed control at 125 g/ha,[9]; 125 g ai/ha,70%
same,pest or weed control at 250 g/ha,[9]; 250 g ai/ha,75%
same,pest or weed control at 31 g/ha,[10]; 31 g ai/ha,0%
same,pest or weed control at 62 g/ha,[10]; 62 g ai/ha,0%
same,pest or weed control at 125 g/ha,[10]; 125 g ai/ha,0%
same,pest or weed control at 250 g/ha,[10]; 250 g ai/ha,0%
